Patent US11198673B2, “Therapeutic compounds and compositions” (eXIthera Pharmaceuticals, Inc., priority 2014, dated 2021)
Converted amounts (≈) assume the structure as drawn.

Target: T1, Thrombin (Homo sapiens, UniProt P00734)
T1 construct: Thrombin; 0.2 μM in 50% glycerol (7.34 μg/mL)
Test: Dose response assay for protease inhibitors: thrombin (FXIa fold selectivity)
Format: biochemical
Conditions: fold selectivity for FXIa over thrombin
Procedure: (§1) • Assay buffer: 20 mM Hepes, pH 7.4; 150 mM NaCl; 0.02% Tween 20 • Compounds: 10 mM stocks in DMSO • Substrate: 20 mM Glp-Pro-Arg-AMC, 25 mg/2.3 mL H2O (store at +4° C.) [Factor XIa, thrombin, and trypsin] • 20 mM Pro-Phe-Arg-AMC (Bachem I-1295), 25 mg/2.2 mL H2O (store at +4° C.) [Factor Xa] • Enzyme: Factor XIa; 0.25 μM in 50% glycerol (20 μg/mL) • Trypsin; 0.2 μM in 50% glycerol (4.8 μg/mL) • Thrombin; 0.2 μM in 50% glycerol (7.34 μg/mL) • Factor Xa; 0.2 μM in 50% glycerol (9.2 μg/mL) • These stocks are aliquoted ([…]) and stored at −20° C. Methods: • 1. Dilute the substrate to 100 μM in assay buffer (30 μL/6 mL). The enzyme is diluted to 0.5 nM just prior to use (12 μL/6 mL for Factor XIa; 15 μL/6 mL for all of the rest.) • 2. Pipette 50 μL of substrate into each well of the 96 well (12×8) microtiter plate. (Column 1 is used as the 100% activity control and receives no compound, and Column 12 is the blank and receives no enzyme.) Add an additional 46 μL to column 2. • 3. Pipette 4 μL of each compound into the appropriate well in column 2 of the plate (unknowns assayed in triplicate, standard assayed in duplicate). The final compound concentration will be 1/50th of the stock. • 4. Serially two-fold dilute the compound by mixing the sample in column 2, removing 50 μL to the next well (column 3), mix and remove to column 4, etc. until column 11. After mixing column 11, remove 50 μL and discard. • 5. Pipette 50 μL of buffer into column 12. Initiate the reaction by adding 50 μL of enzyme solution to each well of columns 1-11 as rapidly as possible. • 6. Read the plate in a spectrophotometer (SpectraMax) at 30° C., wherein each well is measured every 60 s for 30 min. For Factor Xa assays, each well is measured every 1 min for a total of 60 min. • 7. For Factor XIa assays, the compounds are assayed, in duplicate, at 3 different starting concentrations, 20, 2, and 0.2 μM; 1:10, 1:100, and 1:1000 dil'n of 10 mM stock. All data sets are combined for graphing and data fitting. • 8. Data can be used both for estimation of IC50 and for estimation of Kon.

Row | FXIa Fold Selectivity Thrombin | SMILES
1 | I (“I” indicates >1000) | CCOC(=O)[C@@H]1[C@@H](Cc2ccnc(NC)c2)C(=O)N1C(=O)N[C@H](C)c1ccc2c(c1)OC(F)(F)O2 [Example 99]
2 | G (“G” indicates 1-500) | CCOC(=O)[C@@H]1[C@@H](Cc2ccncc2)C(=O)N1C(=O)N[C@H](C)c1ccc2c(c1)OC(F)(F)O2 [Example 170]
3 | I (“I” indicates >1000) | CCOC(=O)[C@@H]1[C@@H](Cc2ccnc(NC(=O)OCOC(=O)C(C)C)c2)C(=O)N1C(=O)N[C@H](C)C1CCCCC1 [Example 137]
4 | G (“G” indicates 1-500) | O=C(O)[C@@H]1[C@@H](Cc2ccncc2)C(=O)N1C(=O)NC(c1ccccc1)c1ccccc1 [Example 123]

More lines, now with the values behind:

Row | SMILES | FXIa Fold Selectivity Thrombin
5 | C[C@@H](NC(=O)N1C(=O)[C@H](Cc2ccnc(N)c2)[C@H]1C(=O)O)c1cccnc1 [Example 40] | I (“I” indicates >1000)
6 | NC(=O)[C@@H]1[C@@H](Cc2ccnc(N)c2)C(=O)N1C(=O)NC(c1ccccc1)c1ccccc1 [Example 22] | H (“H” indicates 500-1000)
7 | CCOC(=O)[C@@H]1[C@@H](Cc2ccnc(NC(=O)OCOC(=O)C(C)C)c2)C(=O)N1C(=O)N[C@H](C)c1ccc2c(c1)OC(F)(F)O2 [Example 92] | I (“I” indicates >1000)
8 | CNc1cc(C[C@H]2C(=O)N(C(=O)N[C@H](C)c3ccc4c(c3)OC(F)(F)O4)[C@@H]2C(=O)O)ccn1 [Example 98] | I (“I” indicates >1000)
9 | Nc1cc(C[C@H]2C(=O)N(C(=O)NC(c3ccccc3)c3ccccc3)[C@@H]2Oc2ccccc2)ccn1 [Example 27] | G (“G” indicates 1-500)

System: Trypsin
Test: Dose response assay for protease inhibitors: trypsin (FXIa fold selectivity)
Format: biochemical
Conditions: fold selectivity for FXIa over trypsin
Procedure: as §1

Row | SMILES | FXIa Fold Selectivity Trypsin
10 | C[C@@H](NC(=O)N1C(=O)[C@H](Cc2ccnc(N)c2)[C@H]1C(=O)O)c1cccnc1 [Example 40] | I (“I” indicates >1000)
11 | CCOC(=O)[C@@H]1[C@@H](Cc2ccnc(NC)c2)C(=O)N1C(=O)N[C@H](C)c1ccc2c(c1)OC(F)(F)O2 [Example 99] | G (“G” indicates 1-500)
12 | NC(=O)[C@@H]1[C@@H](Cc2ccnc(N)c2)C(=O)N1C(=O)NC(c1ccccc1)c1ccccc1 [Example 22] | I (“I” indicates >1000)
13 | CCOC(=O)[C@@H]1[C@@H](Cc2ccncc2)C(=O)N1C(=O)N[C@H](C)c1ccc2c(c1)OC(F)(F)O2 [Example 170] | G (“G” indicates 1-500)
14 | CCOC(=O)[C@@H]1[C@@H](Cc2ccnc(NC(=O)OCOC(=O)C(C)C)c2)C(=O)N1C(=O)N[C@H](C)c1ccc2c(c1)OC(F)(F)O2 [Example 92] | I (“I” indicates >1000)
15 | CCOC(=O)[C@@H]1[C@@H](Cc2ccnc(NC(=O)OCOC(=O)C(C)C)c2)C(=O)N1C(=O)N[C@H](C)C1CCCCC1 [Example 137] | I (“I” indicates >1000)
16 | CNc1cc(C[C@H]2C(=O)N(C(=O)N[C@H](C)c3ccc4c(c3)OC(F)(F)O4)[C@@H]2C(=O)O)ccn1 [Example 98] | I (“I” indicates >1000)
17 | O=C(O)[C@@H]1[C@@H](Cc2ccncc2)C(=O)N1C(=O)NC(c1ccccc1)c1ccccc1 [Example 123] | G (“G” indicates 1-500)
18 | Nc1cc(C[C@H]2C(=O)N(C(=O)NC(c3ccccc3)c3ccccc3)[C@@H]2Oc2ccccc2)ccn1 [Example 27] | G (“G” indicates 1-500)

System: not listed separately
Test: β-Lactam stability in rat plasma
Format: in vitro ADME
Conditions: normal rat plasma, room temperature; read-out: Rat Plasma Stability (T1/2; min)
Summary of the method: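 Compounds incubated in normal rat plasma at room temperature, sampled into acetonitrile from 2 to 480 min. Supernatants analysed by HPLC-MS on C18, extracted ion chromatograms of parent and parent+18 (H2O adduct) integrated; T½ = ln(2)/k from single-phase exponential decay fit.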

Row | half-life | SMILES
19 | < 1.67 h | CCOC(=O)[C@@H]1[C@@H](Cc2ccnc(NC)c2)C(=O)N1C(=O)N[C@H](C)c1ccc2c(c1)OC(F)(F)O2 [Example 99]
20 | < 1.67 h | CCOC(=O)[C@@H]1[C@@H](Cc2ccncc2)C(=O)N1C(=O)N[C@H](C)c1ccc2c(c1)OC(F)(F)O2 [Example 170]
21 | < 1.67 h | CCOC(=O)[C@@H]1[C@@H](Cc2ccnc(NC(=O)OCOC(=O)C(C)C)c2)C(=O)N1C(=O)N[C@H](C)C1CCCCC1 [Example 137]
22 | > 1.67 h | O=C(O)[C@@H]1[C@@H](Cc2ccncc2)C(=O)N1C(=O)NC(c1ccccc1)c1ccccc1 [Example 123]

Continued, compound first:

Row | SMILES | half-life
23 | C[C@@H](NC(=O)N1C(=O)[C@H](Cc2ccnc(N)c2)[C@H]1C(=O)O)c1cccnc1 [Example 40] | > 1.67 h
24 | NC(=O)[C@@H]1[C@@H](Cc2ccnc(N)c2)C(=O)N1C(=O)NC(c1ccccc1)c1ccccc1 [Example 22] | > 1.67 h
25 | CCOC(=O)[C@@H]1[C@@H](Cc2ccnc(NC(=O)OCOC(=O)C(C)C)c2)C(=O)N1C(=O)N[C@H](C)c1ccc2c(c1)OC(F)(F)O2 [Example 92] | < 1.67 h
26 | CNc1cc(C[C@H]2C(=O)N(C(=O)N[C@H](C)c3ccc4c(c3)OC(F)(F)O4)[C@@H]2C(=O)O)ccn1 [Example 98] | > 1.67 h
27 | Nc1cc(C[C@H]2C(=O)N(C(=O)NC(c3ccccc3)c3ccccc3)[C@@H]2Oc2ccccc2)ccn1 [Example 27] | < 1.67 h

Target: T2, human Factor XIa (Homo sapiens, UniProt P03951)
T2 construct: Enzyme: Factor XIa; 0.25 μM in 50% glycerol (20 μg/mL)
T2 sequence (P03951 388-625 limits assumed): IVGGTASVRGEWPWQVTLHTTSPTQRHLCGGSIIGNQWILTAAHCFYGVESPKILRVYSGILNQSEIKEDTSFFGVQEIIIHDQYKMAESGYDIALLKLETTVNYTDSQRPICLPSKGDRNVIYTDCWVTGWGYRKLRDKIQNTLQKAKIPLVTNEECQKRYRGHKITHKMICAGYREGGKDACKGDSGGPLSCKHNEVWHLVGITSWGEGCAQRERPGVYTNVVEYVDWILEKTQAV
T2 sequence (P03951 19-387 partner limits assumed): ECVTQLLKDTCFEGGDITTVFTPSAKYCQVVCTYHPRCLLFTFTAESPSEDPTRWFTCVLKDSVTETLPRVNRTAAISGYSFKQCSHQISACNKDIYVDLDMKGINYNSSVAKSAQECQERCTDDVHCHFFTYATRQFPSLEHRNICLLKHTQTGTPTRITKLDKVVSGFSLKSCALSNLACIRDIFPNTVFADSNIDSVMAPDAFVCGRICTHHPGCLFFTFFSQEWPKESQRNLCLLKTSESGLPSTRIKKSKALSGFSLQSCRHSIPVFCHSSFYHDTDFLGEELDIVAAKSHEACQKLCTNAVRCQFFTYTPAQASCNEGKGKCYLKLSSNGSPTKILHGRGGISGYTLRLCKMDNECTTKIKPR
Test: Factor XIa enzyme inhibition assay (IC50, purified enzyme)
Format: biochemical
Conditions: purified enzyme 0.25 nM, substrate 50 μM; read-out: Potency hFXIa IC50
Summary of the method: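 Fluorogenic Glp-Pro-Arg-AMC cleavage, 50 μM substrate, 0.25 nM enzyme, in 20 mM Hepes pH 7.4, 150 mM NaCl, 0.02% Tween 20. Serial two-fold compound dilutions from starting concentrations of 20, 2 and 0.2 μM. Read every minute for 30 min at 30° C; IC50 from a four-parameter fit of dose-response.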

Row | IC50 | SMILES
28 | < 10 nM | CCOC(=O)[C@@H]1[C@@H](Cc2ccnc(NC)c2)C(=O)N1C(=O)N[C@H](C)c1ccc2c(c1)OC(F)(F)O2 [Example 99]
29 | 10 to 100 nM | CCOC(=O)[C@@H]1[C@@H](Cc2ccncc2)C(=O)N1C(=O)N[C@H](C)c1ccc2c(c1)OC(F)(F)O2 [Example 170]
30 | 10 to 100 nM | CCOC(=O)[C@@H]1[C@@H](Cc2ccnc(NC(=O)OCOC(=O)C(C)C)c2)C(=O)N1C(=O)N[C@H](C)C1CCCCC1 [Example 137]
31 | 100 to 1000 nM | O=C(O)[C@@H]1[C@@H](Cc2ccncc2)C(=O)N1C(=O)NC(c1ccccc1)c1ccccc1 [Example 123]

The remaining lines, values behind:

Row | SMILES | IC50
32 | C[C@@H](NC(=O)N1C(=O)[C@H](Cc2ccnc(N)c2)[C@H]1C(=O)O)c1cccnc1 [Example 40] | 10 to 100 nM
33 | NC(=O)[C@@H]1[C@@H](Cc2ccnc(N)c2)C(=O)N1C(=O)NC(c1ccccc1)c1ccccc1 [Example 22] | < 10 nM
34 | CCOC(=O)[C@@H]1[C@@H](Cc2ccnc(NC(=O)OCOC(=O)C(C)C)c2)C(=O)N1C(=O)N[C@H](C)c1ccc2c(c1)OC(F)(F)O2 [Example 92] | 10 to 100 nM
35 | CNc1cc(C[C@H]2C(=O)N(C(=O)N[C@H](C)c3ccc4c(c3)OC(F)(F)O4)[C@@H]2C(=O)O)ccn1 [Example 98] | < 10 nM
36 | Nc1cc(C[C@H]2C(=O)N(C(=O)NC(c3ccccc3)c3ccccc3)[C@@H]2Oc2ccccc2)ccn1 [Example 27] | 10 to 100 nM

Target: T3, Factor Xa (Homo sapiens, UniProt P00742)
T3 construct: Factor Xa; 0.2 μM in 50% glycerol (9.2 μg/mL)
T3 sequence (P00742 235-488 limits assumed): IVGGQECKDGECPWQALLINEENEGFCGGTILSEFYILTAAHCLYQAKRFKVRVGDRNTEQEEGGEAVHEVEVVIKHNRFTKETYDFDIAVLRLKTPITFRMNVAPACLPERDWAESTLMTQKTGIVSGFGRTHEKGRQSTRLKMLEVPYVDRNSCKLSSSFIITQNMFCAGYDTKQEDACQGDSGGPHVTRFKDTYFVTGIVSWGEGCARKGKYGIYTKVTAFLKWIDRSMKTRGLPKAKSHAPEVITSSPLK
T3 sequence (P00742 41-179 partner limits assumed): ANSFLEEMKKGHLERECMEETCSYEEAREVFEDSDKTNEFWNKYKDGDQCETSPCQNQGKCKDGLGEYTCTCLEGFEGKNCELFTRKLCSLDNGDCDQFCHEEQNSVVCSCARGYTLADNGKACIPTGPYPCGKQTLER
Test: Dose response assay for protease inhibitors: Factor Xa (FXIa fold selectivity)
Format: biochemical
Conditions: fold selectivity for FXIa over Factor Xa
Procedure: as §1

Row | FXIa Fold Selectivity FXa | SMILES
37 | I (“I” indicates >1000) | CCOC(=O)[C@@H]1[C@@H](Cc2ccnc(NC)c2)C(=O)N1C(=O)N[C@H](C)c1ccc2c(c1)OC(F)(F)O2 [Example 99]
38 | G (“G” indicates 1-500) | CCOC(=O)[C@@H]1[C@@H](Cc2ccncc2)C(=O)N1C(=O)N[C@H](C)c1ccc2c(c1)OC(F)(F)O2 [Example 170]
39 | H (“H” indicates 500-1000) | CCOC(=O)[C@@H]1[C@@H](Cc2ccnc(NC(=O)OCOC(=O)C(C)C)c2)C(=O)N1C(=O)N[C@H](C)C1CCCCC1 [Example 137]
40 | G (“G” indicates 1-500) | O=C(O)[C@@H]1[C@@H](Cc2ccncc2)C(=O)N1C(=O)NC(c1ccccc1)c1ccccc1 [Example 123]

Continued, compound first:

Row | SMILES | FXIa Fold Selectivity FXa
41 | C[C@@H](NC(=O)N1C(=O)[C@H](Cc2ccnc(N)c2)[C@H]1C(=O)O)c1cccnc1 [Example 40] | I (“I” indicates >1000)
42 | NC(=O)[C@@H]1[C@@H](Cc2ccnc(N)c2)C(=O)N1C(=O)NC(c1ccccc1)c1ccccc1 [Example 22] | I (“I” indicates >1000)
43 | CCOC(=O)[C@@H]1[C@@H](Cc2ccnc(NC(=O)OCOC(=O)C(C)C)c2)C(=O)N1C(=O)N[C@H](C)c1ccc2c(c1)OC(F)(F)O2 [Example 92] | H (“H” indicates 500-1000)
44 | CNc1cc(C[C@H]2C(=O)N(C(=O)N[C@H](C)c3ccc4c(c3)OC(F)(F)O4)[C@@H]2C(=O)O)ccn1 [Example 98] | G (“G” indicates 1-500)
45 | Nc1cc(C[C@H]2C(=O)N(C(=O)NC(c3ccccc3)c3ccccc3)[C@@H]2Oc2ccccc2)ccn1 [Example 27] | H (“H” indicates 500-1000)

System: not listed separately
Test: physchem
Format: physicochemical
Conditions: pH 7.4, aqueous buffer, kinetic from dmso stock
Procedure: The test compound was prepared at 200 μM in PBS from a 10 mM DMSO stock solution. The final DMSO concentration was 2%. The PBS buffer samples were mixed thoroughly followed by incubation at room temperature for 24 h. At the end of the incubation, the PBS buffer samples were centrifuged and supernatants analyzed by HPLC.

Row | SMILES | solubility at 4 h
46 | CCOC(=O)[C@@H]1[C@@H](Cc2ccnc(NC(=O)OCOC(=O)C(C)C)c2)C(=O)N1C(=O)N[C@H](C)c1ccc2c(c1)OC(F)(F)O2 [Example 92] | 1 to 10 µM (≈ 0.621 to 6.21 µg/mL)
